Experiments:
human D2 receptors = target: T1, human D2 receptors (Homo sapiens, UniProt P14416); assay: Inhibition of [^3 H]spiperone binding to human D2 receptors
T1 construct: expressed in transfected cells
Protocol: (§1) Dopamine D2 antagonists are established as antipsychotic agents. More recently, the dopamine D3 receptor has been identified. On the basis of the localization of the dopamine D3 receptor in the limbic area of the brain, a selective D3 antagonist should show antipsychotic activity but not have the neurological side effects of D2 antagonists. […] Thus, the compounds of Formula I were tested for their ability to bind to dopamine receptors as measured by their inhibition of [^3 H]spiperone binding to the human D2 and D3 receptors in a receptor assay described by MacKenzie R. G., et al., Characterization of the human D3 dopamine receptor expressed in transfected cell lines, Eur. J. Pharmacol., 266:79 (1994); and for their ability to inhibit locomotor activity in mice and rats, a measure of antipsychotic activity, according to the assay described by McLean J. R., et al., Pharmacology, Biochemistry and Behavior, 8:97- 99 (1978). The above test methods are incorporated herein by reference.

human D3 receptors = target: T2, human D3 receptors (Homo sapiens, UniProt P35462); assay: Inhibition of [^3 H]spiperone binding to human D3 receptors
T2 construct: expressed in transfected cells
Protocol: as §1

rats = assay: Inhibition of locomotor activity in rats; format: in vivo; details: Rattus norvegicus, IP
From the text: The compounds of Formula I are valuable dopaminergic agents. Dopamine D2 antagonists are established as antipsychotic agents. More recently, the dopamine D3 receptor has been identified. On the basis of the localization of the dopamine D3 receptor in the limbic area of the brain, a selective D3 antagonist should show antipsychotic activity but not have the neurological side effects of D2 antagonists. The tests employed indicate that compounds of Formula I bind selectively to the dopamine D3 receptor. Thus, the compounds of Formula I were tested for their ability to bind to dopamine receptors as measured by their inhibition of [^3 H]spiperone binding to the human D2 and D3 receptors in a receptor assay described by MacKenzie R. G., et al., Characterization of the human D3 dopamine receptor expressed in transfected cell lines, Eur. J. Pharmacol., 266:79 (1994); and for their ability to inhibit locomotor activity in mice and rats, a measure of antipsychotic activity, according to the assay described by McLean J. R., et al., Pharmacology, Biochemistry and Behavior, 8:97- 99 (1978). The above test methods are incorporated herein by reference.

T2 sequence (P35462 whole entry): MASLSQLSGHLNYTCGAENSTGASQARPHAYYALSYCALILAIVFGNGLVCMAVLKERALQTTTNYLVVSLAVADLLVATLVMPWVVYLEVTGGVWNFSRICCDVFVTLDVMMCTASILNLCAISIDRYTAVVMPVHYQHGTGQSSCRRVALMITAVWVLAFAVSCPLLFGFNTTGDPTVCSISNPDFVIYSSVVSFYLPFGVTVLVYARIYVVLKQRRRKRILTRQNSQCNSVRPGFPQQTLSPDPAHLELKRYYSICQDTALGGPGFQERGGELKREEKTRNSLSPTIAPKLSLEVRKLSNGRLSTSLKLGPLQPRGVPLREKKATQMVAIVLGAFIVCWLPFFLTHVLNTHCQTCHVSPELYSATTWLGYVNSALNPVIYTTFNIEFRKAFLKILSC
T1 sequence (P14416 whole entry): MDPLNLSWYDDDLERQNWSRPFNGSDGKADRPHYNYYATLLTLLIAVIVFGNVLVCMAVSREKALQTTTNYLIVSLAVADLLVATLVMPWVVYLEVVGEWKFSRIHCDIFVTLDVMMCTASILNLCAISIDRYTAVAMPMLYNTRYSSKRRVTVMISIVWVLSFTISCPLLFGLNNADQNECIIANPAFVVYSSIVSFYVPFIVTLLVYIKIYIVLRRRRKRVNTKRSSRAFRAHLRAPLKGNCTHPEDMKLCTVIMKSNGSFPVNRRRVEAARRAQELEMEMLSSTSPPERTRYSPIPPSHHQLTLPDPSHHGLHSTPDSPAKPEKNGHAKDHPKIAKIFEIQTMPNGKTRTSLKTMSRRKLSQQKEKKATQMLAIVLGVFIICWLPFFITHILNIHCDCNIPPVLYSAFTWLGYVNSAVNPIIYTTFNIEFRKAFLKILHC

| Compound | IC50 (human D2 receptors) | IC50 (human D3 receptors) | ED50 (rats) |
| --- | --- | --- | --- |
| CCN(CC)CCCOc1cccc(-c2nc3ccccc3n2C/C=C/Cn2c(-c3cccc(OCCCN(CC)CC)c3)nc3ccccc32)c1 [Example 7, E-(3-{3-[1-(4-{2-[3-(3-Diethylaminopropoxy)phenyl]benzoimidazol-1-yl}but-2-enyl)-1H-benzoimidazol-2-yl]phenoxy}propyl)diethylamine] | 2450 nM | 16 nM |  |
| CCCN(CCC)CCCOc1ccc(-c2nc3ccccc3n2C/C=C/Cn2c(-c3ccc(OCCCN(CCC)CCC)cc3)nc3ccccc32)cc1 [Example 2, E-(3-{4-[1-(4-{2-[4-(3-Dipropylaminopropoxy)phenyl]benzoimidazol-1-yl}but-2-enyl)-1H-benzoimidazol-2-yl]phenoxy}propyl)dipropylamine] |  | 5 nM |  |
| C(=C\Cn1c(-c2ccc(OCCCN3CCCC3)cc2)nc2ccccc21)/Cn1c(-c2ccc(OCCCN3CCCC3)cc2)nc2ccccc21 [Example 1] |  | 9 nM |  |
| CCN(CC)CCCOc1ccc(-c2nc3ccccc3n2C/C=C/Cn2c(-c3ccccc3)nc3ccccc32)cc1 [Example 13, Diethyl-[3-(4-{1-[4-(2-phenylbenzoimidazol-1-yl)but-2-enyl]-1H-benzoimidazol-2-yl}phenoxy)propyl]amine] | 6430 nM |  |  |
| CCCCN(CCCC)CCCOc1ccc(-c2nc3ccccc3n2C/C=C/Cn2c(-c3ccc(OCCCN(CCCC)CCCC)cc3)nc3ccccc32)cc1 [Example 8, E-Dibutyl-(3-{4-[1-(4-{2-[4-(3-dibutylaminopropoxy)phenyl]benzoimidazol-1-yl}-but-2-enyl)-1H-benzoimidazol-2-yl]phenoxy}propyl)amine] | 427 nM |  |  |
| NCCCOc1ccc(-c2nc3ccccc3n2C/C=C/Cn2c(-c3ccc(OCCCN4CCN(c5ccccc5)CC4)cc3)nc3ccccc32)cc1 [Example 15] | 803 nM | 19 nM |  |
| CCN1CCCC1CNC(=O)c1ccc(-c2nc3ccccc3n2CCCCn2c(-c3ccc(C(=O)NCC4CCCN4CC)cc3)nc3ccccc32)cc1 (centres unmarked) [Example 16] | 1430 nM | 85 nM |  |
| CCN(CC)CCCOc1ccc(-c2nc3ccccc3n2C/C=C/Cn2c(-c3ccc(OCCCN(CC)CC)cc3)nc3ccccc32)cc1 [Example 10, E-(3-{4-[1-(4-{2-[4-(3-Diethylaminopropoxy)phenyl]benzoimidazol-1-yl}but-2-enyl)-1H-benzoimidazol-2-yl]phenoxy}propyl)diethylamine] |  | 16 nM | 3.9 mg/kg |
| CCN(CC)CCCOc1ccc(-c2nc3ccccc3n2CCCCn2c(-c3ccc(OCCCN(CC)CC)cc3)nc3ccccc32)cc1 [Example 12, (3-{4-[1-(4-{2-[4-(3-Diethylaminopropoxy)phenyl]benzoimidazol-1-yl}butyl)-1H-benzoimidazol-2-yl]phenoxy}propyl)diethylamine] | 1070 nM | 36 nM | 2.8 mg/kg |
| CN(C)CCCOc1ccc(-c2nc3ccccc3n2C/C=C/Cn2c(-c3ccc(OCCCN(C)C)cc3)nc3ccccc32)cc1 [Example 5, E-(3-{4-[1-(4-{2-[4-(3-Dimethylaminopropoxy)phenyl]benzoimidazol-1-yl}but-2-enyl)-1H-benzoimidazol-2-yl]phenoxy}propyl)dimethylamine] |  | 143 nM |  |
| CCN(CC)CCNC(=O)c1ccc(-c2nc3ccccc3n2CCCCn2c(-c3ccc(C(=O)NCCN(CC)CC)cc3)nc3ccccc32)cc1 [Example 17] | 3070 nM | 110 nM |  |
| CCCN(CCC)CCCOc1ccc(-c2nc3ccccc3n2CCCCn2c(-c3ccc(OCCCN(CCC)CCC)cc3)nc3ccccc32)cc1 [Example 11, (3-{4-[1-(4-{2-[4-(3-Dipropylaminopropoxy)phenyl]benzoimidazol-1-yl}butyl)-1H-benzoimidazol-2-yl]phenoxy}propyl)dipropylamine] | 2740 nM | 16 nM |  |
| C(=C\Cn1c(-c2ccc(OCCCN3CCCCC3)cc2)nc2ccccc21)/Cn1c(-c2ccc(OCCCN3CCCCC3)cc2)nc2ccccc21 [Example 6] |  | 9 nM |  |
| CC(C)N(C)CCCOc1ccc(-c2nc3ccccc3n2C/C=C/Cn2c(-c3ccc(OCCCN(C)C(C)C)cc3)nc3ccccc32)cc1 [Example 9, E-Isopropyl-[3-(4-{1-[4-(2-{4-[3-(isopropylmethylamino)propoxy]phenyl}benzoimidazol-1-yl)but-2-enyl]-1H-benzoimidazol-2-yl}phenoxy)propyl]methylamine] | 200 nM | 6 nM |  |

— patent US5414010A, “Dimeric benzimidazoles as central nervous system agents” (Warner-Lambert Company, priority 1994, dated 1995)
